# Measured values from publication PMC8386747, “Structure–activity relationship, in vitro and in vivo evaluation of novel dienyl sulphonyl fluorides as selective BuChE inhibitors for the treatment of Alzheimer's disease” (Journal of Enzyme Inhibition and Medicinal Chemistry, 2021).
# “Also recorded” adds a separate entry of the source.
# Experiments:
# AChE from electric eel = target: T1, AChE from electric eel (Electrophorus electricus, UniProt O42275); assay: EeAChE inhibition assay (Ellman's method); format: biochemical; settings: read-out: AChE % inhibition at 20 µM; AChE from electric eel; 20 µM; na = no inhibitory activity at 20 µM
# T1 construct: assays were performed on AChE from electric eel (C3389-500UN; Sigma); purchased Sigma C3389-500UN
# T1 sequence (O42275 24-633): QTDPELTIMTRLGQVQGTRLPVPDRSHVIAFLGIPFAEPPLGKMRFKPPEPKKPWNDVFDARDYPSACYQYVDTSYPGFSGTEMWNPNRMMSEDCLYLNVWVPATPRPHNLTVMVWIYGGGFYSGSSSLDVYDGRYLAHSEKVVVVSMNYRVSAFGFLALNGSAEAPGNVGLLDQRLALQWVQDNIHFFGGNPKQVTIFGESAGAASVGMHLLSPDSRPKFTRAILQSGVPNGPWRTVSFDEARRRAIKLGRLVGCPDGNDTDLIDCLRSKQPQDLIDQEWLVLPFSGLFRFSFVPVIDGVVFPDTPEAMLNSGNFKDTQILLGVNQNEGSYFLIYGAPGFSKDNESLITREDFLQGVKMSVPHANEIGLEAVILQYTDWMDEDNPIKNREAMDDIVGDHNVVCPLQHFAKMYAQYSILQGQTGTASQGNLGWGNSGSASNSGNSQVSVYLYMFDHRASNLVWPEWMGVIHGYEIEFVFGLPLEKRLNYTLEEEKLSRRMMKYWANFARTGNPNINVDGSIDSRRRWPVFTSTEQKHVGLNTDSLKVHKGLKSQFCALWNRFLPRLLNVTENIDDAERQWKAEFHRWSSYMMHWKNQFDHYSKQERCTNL
# Description: (§2) According to the Ellman’s method, assays were performed on AChE from electric eel (C3389-500UN; Sigma) and BuChE from equine serum (C4290-1KU; Sigma). The experiment was performed in 48-well plates in a final volume of 500 µL. Each well contained 0.036 U/mL of eeAChE or eqBuChE, and 0.1 M pH 8 PBS. They were pre-incubated for 20 min at different compound concentrations at 37 °C. […] The DTNB produces the yellow anion 5-thio-2-nitrobenzoic acid along with the enzymatic degradation of ACh or BuCh. Changes in absorbance were measured at 410 nm after 20 min in a PerkinElmer VICTOR Nivo reader. The IC50 values were calculated graphically from inhibition curves (log inhibitor concentration vs percent of inhibition). A control experiment was performed under the same conditions without inhibitor and the blank contained buffer, DMSO, DTNB, and substrate.
# male ICR mice = assay: In vivo hepatotoxicity evaluation
# Description: The combination was administered intragastrically at a dose of 30 mg/kg body weight and the same amount of vehicle (po). Heparinised serum was collected from the retrobulbar plexus at 8, 22, and 36 h after administration for hepatotoxicity evaluation. The activities of alanine aminotransferase (ALT) and aspartate aminotransferase (AST), indicators of liver injury, were measured with corresponding kits (EF551 and EF550 for ALT, EH027 and EH548 for AST). […] After the last collection of post-globular blood, mice were sacrificed and livers were taken for immunohistochemical morphological observation. We isolated two 3-mm sections of each liver from the hilum to the edge of the left lateral lobe using an ultra-thin semi-automatic microtome (LeicaRM2245, Germany), immediately placed them in 10% buffered formaldehyde, fixed them for 2 days, and embedded them in paraffin blocks using a paraffin-embedding station (LeicaEG1150H, Germany). Subsequently, five µM sections were prepared from these paraffin sections, deparaffinized, stained with haematoxylin and eosin or using the periodic acid-Schiff glycogen staining method.
# Aβ1-42 = format: in vivo, mouse; settings: mice, Aβ1-42 icv; 10 mg/kg po; vs model group
# Description: In the experiment of Aβ1-42 oligomeric injury, all mice were sacrificed after the end of behavioural study, and the brains were taken to determine the total content of Aβ1-42 with a mouse ELISA kit (Wuhan Huamei Biotechnology Co., Ltd.). Each brain tissue specimen was completely homogenised with a grinder with 10 times PBS (pH = 7.4 ± 0.1) and then centrifuged at 5000×g for 5 min. The supernatant was separated for use. Brain tissue Aβ1-42 content was calculated according to the linear regression equation.
# BuChE from equine serum = target: T2, BuChE from equine serum (Equus caballus, UniProt P81908); assay: eqBuChE inhibition assay (Ellman's method); format: biochemical; settings: BuChE from horse serum; mean ± SEM
# T2 construct: BuChE from equine serum (C4290-1KU; Sigma); purchased Sigma C4290-1KU; host or cells: equine serum
# T2 sequence (P81908 whole entry): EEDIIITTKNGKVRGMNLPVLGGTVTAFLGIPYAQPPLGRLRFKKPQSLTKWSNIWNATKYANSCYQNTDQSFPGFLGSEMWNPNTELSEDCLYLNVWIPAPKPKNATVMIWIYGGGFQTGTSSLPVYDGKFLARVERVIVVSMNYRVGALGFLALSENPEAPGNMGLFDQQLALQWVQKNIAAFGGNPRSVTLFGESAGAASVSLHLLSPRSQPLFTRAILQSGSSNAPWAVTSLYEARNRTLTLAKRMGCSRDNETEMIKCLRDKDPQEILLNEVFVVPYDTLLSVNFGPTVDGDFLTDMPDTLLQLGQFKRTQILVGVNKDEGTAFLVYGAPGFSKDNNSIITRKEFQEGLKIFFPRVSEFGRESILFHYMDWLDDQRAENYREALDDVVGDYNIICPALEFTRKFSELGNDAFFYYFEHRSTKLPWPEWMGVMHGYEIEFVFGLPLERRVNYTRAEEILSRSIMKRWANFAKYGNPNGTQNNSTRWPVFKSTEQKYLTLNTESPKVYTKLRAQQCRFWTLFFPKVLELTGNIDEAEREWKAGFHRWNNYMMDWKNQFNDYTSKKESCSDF
# Description: as §2
# [1] = system: human normal hepatocyte L02; assay: Cytotoxicity MTT assay on L02 cells; format: cell-based; settings: 24 h
# Description: (§1) The cytotoxic effect was detected by MTT colorimetric assay. Human hepatoblastoma cells HepG2 and human normal hepatocyte L02 were maintained at 37 °C in a 5% humidified incubator containing 10% foetal bovine serum, 100 U/mL penicillin and […] streptomycin. HepG2 cells and L02 cells were seeded in 96-well plates at 1 × 10^4 cells per well. After cell culture for 24 h, different compounds were diluted in DMEM for 24 h. […] of 5 mg/mL MTT reagent was added for incubation for 4 h. After 4 h, the cell culture medium was removed and […] of DMSO was added to dissolve formazan. The optical density was measured at 492 nm (OD492). Cell viability was calculated from three independent experiments. The density of formazan formed in blank group was set as 100% of viability. Cell viability (%) ¼ compound (OD492/blank (OD492) ×100%
# eqBuChE = target: T3, eqBuChE (Equus caballus, UniProt P81908); assay: Kinetic study of eqBuChE inhibition; format: biochemical, horse
# T3 construct: BuChE from equine serum (C4290-1KU; Sigma); purchased Sigma C4290-1KU; host or cells: equine serum
# T3 sequence (P81908 whole entry): as above
# Description: Kinetic studies were performed with the same test conditions, using six concentrations of substrate (0.1‒1 mM) and four concentrations of inhibitor (0‒0.08 mM). The apparent inhibition constants and kinetic parameters were calculated in the “Enzyme Kinetics” module of Prism8. The effect of compound A10 concentration on the catalytic activity of BuChE at 37 °C was investigated. Assay conditions were same as described in the assay protocol except that the final concentration of enzyme was varied (0‒0.72 U/mL). Concentrations of compound A10 were 0, 0.02, 0.04, 0.08 µM respectively, for the determination of reversible as well as irreversible binding of inhibitors at enzyme.
# [2] = target: T4, recombinant human AChE (hAChE) (Homo sapiens, UniProt P22303); assay: hAChE inhibition assay (Ellman's assay); format: biochemical
# T4 construct: purchased Sigma C1682
# T4 sequence (P22303 32-614): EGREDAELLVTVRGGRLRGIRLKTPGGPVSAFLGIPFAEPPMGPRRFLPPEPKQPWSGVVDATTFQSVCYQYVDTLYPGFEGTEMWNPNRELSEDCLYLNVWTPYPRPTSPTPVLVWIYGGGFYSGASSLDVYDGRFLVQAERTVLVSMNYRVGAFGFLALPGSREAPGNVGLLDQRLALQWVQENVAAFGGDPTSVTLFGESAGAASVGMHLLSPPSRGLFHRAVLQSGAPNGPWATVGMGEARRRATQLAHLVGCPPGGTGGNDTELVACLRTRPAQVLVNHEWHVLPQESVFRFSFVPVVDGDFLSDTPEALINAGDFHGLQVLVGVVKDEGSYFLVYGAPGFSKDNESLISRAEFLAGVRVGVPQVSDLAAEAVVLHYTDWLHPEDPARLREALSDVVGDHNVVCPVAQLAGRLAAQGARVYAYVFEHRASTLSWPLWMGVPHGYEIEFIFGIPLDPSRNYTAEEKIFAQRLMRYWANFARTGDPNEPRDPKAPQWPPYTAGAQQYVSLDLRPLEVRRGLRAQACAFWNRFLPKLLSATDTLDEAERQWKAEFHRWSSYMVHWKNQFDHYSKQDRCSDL
# Description: The solution was diluted to 5 concentrations of 200, 100, 10, 1 and 0.1 µM in ethanol. Measurements were performed using 96-well plates. Buffer (40 µL), sample at a series of concentrations (10 µL), AChE (10 µL), and dibutyl succinate (20 µL) were successively added. The mixture was then incubated for 5 min at 37 °C. Then, 20 µL of ACh or BuCh were added and the reaction started. […] For the blank value, 10 µL of water was used instead of the inhibitor solution. The activity of the inhibitor was expressed as a logarithmic plot of the percentage of enzyme activity (with 100% as the reference) versus the concentration of the compound. IC50 values were determined graphically from inhibition curves (log inhibitor concentration versus percent inhibition).
# PC12 cells = assay: Neuroprotection assay against H2O2 damage; format: cell-based; settings: PC12, 100 µM H2O2 (model 47.3%), not given
# in vitro = settings: PAMPA, PAMPA-BBB
# Description: (§3) The 96-well UV plate (COSTAR) was manufactured by Corning Corporation, USA, and the commercially available drugs and test compounds were initially dissolved in DMSO at a concentration of 20 mg/mL. The solution was then diluted 200-fold with PBS (pH 7.4 ± 0.1)/EtOH (70/30, v/v) solution to a final concentration of 100 µg/mL.
# (§4) The test compound was dissolved in DMSO at 5 mg/mL and diluted 200-fold with universal buffer (final concentration 25 µg/mL) to prepare the secondary stock solution; 200 µL of the secondary stock solution was added to the donor well; the acceptor plate was coated with 4 µL of 20 mg/mL dodecyl porcine polar brain, and then, 200 µL of pH 7.4 universal buffer was added to the acceptor well; the acceptor plate was carefully placed on the donor plate to form a “sandwich” and maintained for 18 h; the drug concentrations in the acceptor, donor and reference wells were determined using a UV microplate reader; the experiment was repeated three times, and the concentrations of the test compound in the donor and acceptor wells were measured using a UV plate spectral reader (PerkinElmer VICT or Nivo, Finland). In at least three independent experiments, each sample was analysed at three wavelengths in a four well.
# ICR mice = assay: In vivo acute toxicity evaluation; design: species or system mouse
# Description: […]. Compound A10 was suspended in a mixture of DMSO, PEG 400 and physiological saline (10/50/40, v/v/v). After fasting for 8‒12 h, the mice were intragastrically administered with the preparation or test compound A10 1.0 g/kg on the first day. The behaviour, appearance and body weight changes of the mice were observed and recorded for 2 weeks. The body weights of the mice in the control group and experimental group were compared and summarised with GraphPadPrism8.0 software.
# [3] = target: T5, BuChE from human serum (hBuChE) (Homo sapiens, UniProt P06276); assay: hBuChE inhibition assay (Ellman's assay); format: biochemical; settings: mean ± SEM
# T5 construct: BuChE from human serum (hBuChE); purchased Sigma B4186; host or cells: human serum
# T5 sequence (P06276 29-602): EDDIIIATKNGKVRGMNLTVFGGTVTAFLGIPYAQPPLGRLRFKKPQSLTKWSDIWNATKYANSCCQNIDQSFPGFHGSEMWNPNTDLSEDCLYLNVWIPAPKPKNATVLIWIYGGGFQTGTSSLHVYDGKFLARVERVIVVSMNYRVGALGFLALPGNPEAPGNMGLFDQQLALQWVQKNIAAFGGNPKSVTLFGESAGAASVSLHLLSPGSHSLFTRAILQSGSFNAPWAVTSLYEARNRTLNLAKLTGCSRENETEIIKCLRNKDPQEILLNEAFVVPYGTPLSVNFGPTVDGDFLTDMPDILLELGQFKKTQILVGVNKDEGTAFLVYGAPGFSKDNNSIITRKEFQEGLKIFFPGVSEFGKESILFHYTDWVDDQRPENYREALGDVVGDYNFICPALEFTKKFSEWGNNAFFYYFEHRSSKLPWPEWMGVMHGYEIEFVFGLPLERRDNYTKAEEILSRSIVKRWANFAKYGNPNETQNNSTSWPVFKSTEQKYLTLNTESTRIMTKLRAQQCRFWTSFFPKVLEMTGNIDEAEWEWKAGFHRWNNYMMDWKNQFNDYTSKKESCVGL
# Description: DTNB solution (5 µM) was prepared with 0.1 M pH 8 PBS. The test compound was dissolved at a concentration of 2 × 1 0^−1 M in DMSO and stored at temperatures ranging from −20 to 4 °C as a stock solution. The solution was diluted to 5 concentrations of 200, 100, 10, 1 and 0.1 µM in ethanol. Measurements were performed using 96-well plates. Buffer (40 µL), sample at a series of concentrations (10 µL), AChE (10 µL), and dibutyl succinate (20 µL) were successively added. The mixture was then incubated for 5 min at 37 °C. Then, 20 µL of ACh or BuCh were added and the reaction started. […] For the blank value, 10 µL of water was used instead of the inhibitor solution. The activity of the inhibitor was expressed as a logarithmic plot of the percentage of enzyme activity (with 100% as the reference) versus the concentration of the compound. IC50 values were determined graphically from inhibition curves (log inhibitor concentration versus percent inhibition).
# [4] = system: Aβ1-42-induced cognitive dysfunction; assay: Morris water maze in Aβ1-42-induced cognitive impairment model; format: in vivo, mouse; settings: mice, 10 mg/kg po Day 3 to Day 14
# Description: All experiments were performed according to the National Institutes of Health Guide for the Care and Use of Laboratory Animals. The Measures for the Care and Treatment of Laboratory Animals were approved by the Animal Care and Use Committee of Anhui Medical University. Male ICR mice were used in the animal centre of Anhui Medical University (Hefei). Male mice (18‒24 g) aged 6‒8 weeks, 10 mice per cage, room temperature 22 ± 2 °C, light/dark (12:12 h) cycle. These animals had access to food and water prior to testing. The ambient temperature and relative humidity (50%) of the room remained consistent throughout all tests. Behavioural experiments: MWM was used for cognitive function, and mice were randomly selected for behavioural experiments. Each experimental group consisted of 8‒10 mice/dose. The experimental time was from 08:00 to 14:00, and the mice were sacrificed by cervical dislocation immediately after the end of the experiment. […]. Aβ1-42 aggregation was induced by dissolving the Aβ1-42 peptide in DMSO as a stock solution of 5 mM and incubating it in saline at a final concentration of 2 mg/mL for 24 h at 37 °C.
# The behavioural study was a water maze experimental behavioural study on days 10 − 15, including a 5-day learning and memory training, and a test assessment on day 6. MWM consists of a water-filled pool (grey, circular, 1.20 m in diameter, 0.60 m in height) and a platform with adjustable height and movable position. The pool was divided into four equal quadrants (compass position: NE, NW, SE, SW) using a computerised video tracking system (SMART, version 3.0; Panlab, Spain). The pool was filled with water, generally about 48 cm below the edge, to prevent animals from jumping out, and the water temperature was maintained at 22 ± 1 °C. […] The time to reach the hidden platform (i.e. escape latency), the distance to reach the hidden platform, the distance in the target (NW) area, and the average speed were recorded. […]
# [5] = PAMPA-BBB class
# Description: as §3, §4
# [6] = system: human hepatoblastoma cells HepG2; assay: Cytotoxicity MTT assay on HepG2 cells; format: cell-based; settings: 24 h
# Description: as §1
# [7] = 30 mg/kg intragastric, 8, 22 and 36 h
compound,measurement,setting,value
COc1ccccc1C=CC=C(Br)S(=O)(=O)F [Compound A10],inhibition at 20 µM,AChE from electric eel,40.8 ± 3.3%
same,serum ALT vs vehicle group,male ICR mice; [7],no significant difference
same,serum AST vs vehicle group,male ICR mice; [7],no significant difference
same,liver histomorphology,"male ICR mice; 30 mg/kg, 36 h after administration",didn’t show central necrosis or significant steatosis
same,decrease of brain Aβ1-42 peptides,Aβ1-42,20.6%
same,IC50,BuChE from equine serum,21 nM
same,cell survival rate,[1]; 50 µM,87.1%
same,cell survival rate,[1]; 10 and 25 µM,did not decrease
same,type of BuChE inhibition,"eqBuChE; Lineweaver–Burk plot, eqBuChE",mixed competitive; also recorded: mixed inhibition
same,reversibility of BuChE inhibition,"eqBuChE; enzyme activity vs enzyme concentration, 0–0.08 µM inhibitor",reversible
same,Ki,"eqBuChE; eqBuChE, Lineweaver–Burk secondary plot, read-out: dissociation constant Ki",29 nM
same,inhibition at 20 µM,[2],49.7 ± 2.7%
same,cell survival rate,PC12 cells; first (lower) of the A10 concentrations,63.3%
same,cell survival rate,PC12 cells; second (higher) of the A10 concentrations,71.8%
same,Papp,"in vitro; pH 7.4, Pe",13.7 ×10⁻⁶ cm/s
same,Papp,"in vitro; pH 7.4, Pe×10^-6cm/s Exp. value, three independent experiments",13.4 ×10⁻⁶ cm/s
same,"general condition, appearance and activity",ICR mice; 1.0 g/kg intragastric,no significant change in appearance and activity
same,difference of body weight changes vs vehicle group,"ICR mice; ICR mice, 1.0 g/kg intragastric, 14 days",not significant
same,tolerability in vivo,"ICR mice; ICR mice, single intragastric dose 1.0 g/kg, 14 days",well tolerated
same,IC50,[3],3.62 ± 0.32 µM
same,body weight gain during treatment,[4],did not affect
same,effect on Aβ1-42-induced cognitive dysfunction (MWM),"[4]; Aβ1-42 10 µg icv, 10 mg/kg",significantly improved; also recorded: improved the cognitive impairment
same,BBB penetration,[5],CNS+ (“CNS +” (high BBB permeation): Pe (× 10^‒6 cm/s) >4.0)
same,cell survival rate,[6]; 50 µM,85.6%
same,cell survival rate,[6]; 10 and 25 µM,did not decrease
